Values quoted from earlier work as cited in patent US11033514B2 (priority 2016, dated 2021).

[1] = Nguyen et al. (2009), oral dose 5 grams

Half life in blood (in vivo, po) [h]	Plasma level (in vivo, po) [nM]	Half-Life (Goldberg et al. (2003), oral dose 25 mg) [h]	% of orally administered dose of resveratrol bioavailable [1]	Unconjugated/Free Resveratrol in plasma (Bioavailability) [1] [nmol/L]	SMILES
0.5	5 to 40				Oc1ccc(/C=C/c2cc(O)cc(O)c2)cc1 [Synthetic resveratrol]
		2	(0.012% of orally	2400	Oc1ccc(/C=C/c2cc(O)cc(O)c2)cc1 [resveratrol, 3,5,4′-trihydroxy-trans-stilbene]
